system: IL-12 and IL-23 synthesis; experiment: not given; conditions: background; cited from earlier work

**Q.** For `Cc1cccc(/C=N/Nc2cc(N3CCOCC3)nc(OCCc3ccccn3)n2)c1` [Apilimod], which “inhibitor of IL-12 and IL-23 synthesis” value is on record?
**A.** inhibitor of IL-12 and IL-23 synthesis

system: enveloped viruses; experiment: not given; conditions: background; cited from earlier work

**Q.** Which “prevention of infection by enveloped viruses” value does the source give for `Cc1cccc(/C=N/Nc2cc(N3CCOCC3)nc(OCCc3ccccn3)n2)c1` [Apilimod] here?
**A.** prevent infection by some of these enveloped viruses

system: MDCK cells; experiment: not given; conditions: dog

**Q.** With `NC(=O)c1ncn([C@@H]2O[C@H](CO)[C@@H](O)[C@H]2O)n1` [ribavirin, reference compound] as the compound, how does the CC50 read?
**A.** > 1000 µM

target: T1, PIKFYVE (Homo sapiens, UniProt Q9Y2I7); experiment: not given; parameters: T7 phage display fusion, or alternatively DNA tag for qPCR (general KINOMEscan description); purchased Eurofins; conditions: background; cited from earlier work
T1 sequence (Q9Y2I7 whole entry, the tested form may be a part): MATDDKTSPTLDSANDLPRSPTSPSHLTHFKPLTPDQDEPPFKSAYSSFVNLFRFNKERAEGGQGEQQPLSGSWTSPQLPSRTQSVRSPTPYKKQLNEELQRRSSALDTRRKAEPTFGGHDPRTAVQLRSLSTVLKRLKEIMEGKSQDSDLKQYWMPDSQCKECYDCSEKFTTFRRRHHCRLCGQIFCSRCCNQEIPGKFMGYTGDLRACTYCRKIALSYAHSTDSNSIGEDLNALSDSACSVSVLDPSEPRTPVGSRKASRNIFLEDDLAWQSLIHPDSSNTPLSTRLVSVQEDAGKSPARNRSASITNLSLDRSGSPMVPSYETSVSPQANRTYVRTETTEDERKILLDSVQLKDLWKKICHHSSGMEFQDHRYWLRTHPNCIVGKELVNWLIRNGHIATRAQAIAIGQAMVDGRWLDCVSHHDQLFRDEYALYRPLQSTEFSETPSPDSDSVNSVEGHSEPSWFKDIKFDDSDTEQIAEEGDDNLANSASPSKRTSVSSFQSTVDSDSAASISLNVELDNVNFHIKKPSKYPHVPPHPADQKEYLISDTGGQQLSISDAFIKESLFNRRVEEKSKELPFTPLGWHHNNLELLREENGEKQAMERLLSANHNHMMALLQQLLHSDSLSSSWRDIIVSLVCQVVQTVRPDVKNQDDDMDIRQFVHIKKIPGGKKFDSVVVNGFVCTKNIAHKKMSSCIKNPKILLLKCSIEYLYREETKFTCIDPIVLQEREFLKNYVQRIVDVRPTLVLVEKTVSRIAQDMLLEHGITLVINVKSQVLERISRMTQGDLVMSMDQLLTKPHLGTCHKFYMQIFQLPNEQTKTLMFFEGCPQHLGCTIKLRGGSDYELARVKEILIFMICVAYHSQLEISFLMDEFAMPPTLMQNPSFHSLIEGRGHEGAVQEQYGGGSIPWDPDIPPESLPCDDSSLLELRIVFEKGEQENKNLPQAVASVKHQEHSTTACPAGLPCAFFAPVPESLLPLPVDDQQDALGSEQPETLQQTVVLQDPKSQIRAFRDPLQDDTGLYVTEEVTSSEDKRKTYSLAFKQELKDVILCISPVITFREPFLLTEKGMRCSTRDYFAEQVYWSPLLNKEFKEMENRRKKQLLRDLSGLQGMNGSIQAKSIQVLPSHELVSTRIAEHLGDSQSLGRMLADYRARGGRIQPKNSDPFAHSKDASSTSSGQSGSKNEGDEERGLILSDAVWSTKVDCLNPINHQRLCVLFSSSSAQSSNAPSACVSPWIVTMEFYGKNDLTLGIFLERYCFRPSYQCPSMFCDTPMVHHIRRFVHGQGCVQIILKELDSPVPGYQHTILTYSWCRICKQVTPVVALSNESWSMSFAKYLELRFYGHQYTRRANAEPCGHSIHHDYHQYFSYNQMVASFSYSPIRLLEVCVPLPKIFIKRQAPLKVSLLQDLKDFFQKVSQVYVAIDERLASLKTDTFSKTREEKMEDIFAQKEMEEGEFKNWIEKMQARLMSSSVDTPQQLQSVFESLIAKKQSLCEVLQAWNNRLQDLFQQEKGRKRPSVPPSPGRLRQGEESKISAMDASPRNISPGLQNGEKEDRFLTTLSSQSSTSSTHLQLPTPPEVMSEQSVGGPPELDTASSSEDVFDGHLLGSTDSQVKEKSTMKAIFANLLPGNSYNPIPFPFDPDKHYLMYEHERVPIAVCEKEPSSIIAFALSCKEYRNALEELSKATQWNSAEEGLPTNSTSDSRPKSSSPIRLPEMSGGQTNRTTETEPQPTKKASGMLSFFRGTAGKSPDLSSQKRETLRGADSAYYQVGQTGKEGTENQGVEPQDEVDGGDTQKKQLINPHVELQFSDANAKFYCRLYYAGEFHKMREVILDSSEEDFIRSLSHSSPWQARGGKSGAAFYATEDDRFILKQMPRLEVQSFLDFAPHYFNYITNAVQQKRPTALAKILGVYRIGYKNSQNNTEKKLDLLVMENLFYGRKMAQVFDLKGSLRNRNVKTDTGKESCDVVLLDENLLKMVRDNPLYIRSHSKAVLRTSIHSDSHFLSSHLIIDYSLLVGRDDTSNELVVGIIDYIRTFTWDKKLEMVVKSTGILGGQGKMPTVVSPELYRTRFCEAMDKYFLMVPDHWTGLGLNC

**Q.** With `Cc1cccc(/C=N/Nc2cc(N3CCOCC3)nc(OCCc3ccccn3)n2)c1` [Apilimod] as the compound, how does the PIKFYVE inhibitory activity read?
**A.** potent PIKFYVE inhibitory activity

target: T1, PIKFYVE; experiment: KINOMEscan Kinase Assay (PIKFYVE inhibitory activity); conditions: read-out: PIKfyve Activity (% inhibition)

**Q.** With `Cc1cccc(-c2ccn(-c3cc(N4CCOCC4)c4nc(C(=O)N5CCN(S(C)(=O)=O)CC5)[nH]c4n3)n2)c1` [Ex. 87] as the compound, how does the inhibition at 0.001 µM read?
**A.** 20%

**Q.** Which inhibition at 0.001 µM does the source give for `Cc1cccc(-c2ccn(-c3cc(N4CCOCC4)c4nc(C(=O)N5CCN(S(C)(=O)=O)CC5)n(C)c4n3)n2)c1` [Ex. 304] here?
**A.** 46%

**Q.** For `Cc1cccc(-c2ccn(-c3nc(N4CCOCC4)c4nc(CO)n(C)c4n3)n2)c1` [Ex. 315], which inhibition at 0.001 µM is on record?
**A.** 47%

**Q.** With `Cc1cccc(-c2ccn(-c3cc(N4CCOCC4)c4sc(NC(=O)C5CCCN(C)C5)cc4n3)n2)c1` (centres unmarked) [Ex. 272] as the compound, how does the inhibition at 0.001 µM read?
**A.** 44%

**Q.** For `Cc1cccc(-c2ccn(-c3nc4[nH]c(C(=O)N5CCC(C(C)(C)O)CC5)nc4c(N4CCOCC4)c3F)n2)c1` [Ex. 306], which inhibition at 0.003 µM is on record?
**A.** 9%

**Q.** What does the source list for `Cc1cccc(-c2ccn(-c3cc(N4CCOCC4)c4sc(CO)c(C)c4n3)n2)c1` [Ex. 166, (3-Methyl-7-morpholino-5-(3-(m-tolyl)-1H-pyrazol-1-yl)thieno[3,2-b]pyridin-2-yl)methanol]?
**A.** inhibition at 0.001 µM: 34%; inhibition at 0.003 µM: 14%

**Q.** For `Cc1cccc(-c2ccn(-c3nc(N4CCOCC4)c4sc(C#CCN(C)C)cc4n3)n2)c1` [Ex. 207, N,N-Dimethyl-3-(4-morpholino-2-(3-(m-tolyl)-1H-pyrazol-1-yl)thieno[3,2-d]pyrimidin-6-yl)prop-2-yn-1-amine], which inhibition at 0.001 µM is on record?
**A.** 35%

**Q.** Which inhibition at 0.001 µM does the source give for `Cc1cccc(-c2ccn(-c3cc(N4CCOCC4)c4sc(NC(=O)C5COC5)cc4n3)n2)c1` [Ex. 232] here?
**A.** 24%

**Q.** Which inhibition at 0.003 µM does the source give for `Cc1cccc(-c2ccn(-c3nc(N4CCOCC4)c4nc(CN5CCC(N(C)C)C(F)C5)n(C)c4n3)n2)c1` (centres unmarked) [Ex. 171, 3-fluoro-N,N-dimethyl-1-((9-methyl-6-morpholino-2-(3-(m-tolyl)-1H-pyrazol-1-yl)-9H-purin-8-yl)methyl)piperidin-4-amine] here?
**A.** 22%

**Q.** Which inhibition at 0.001 µM does the source give for `Cc1cccc(-c2nc(-c3cc(N4CCOCC4)c4sc(CN5CCN(S(C)(=O)=O)CC5)cc4n3)cs2)c1` [Ex. 244] here?
**A.** 37%

same assay, conditions: read-out: PIKfyve Activity (PIKfyve % inhibition)

**Q.** For `Cc1cccc(-c2ccn(-c3cc(N4CCOCC4)c4sc(C(=O)NC5CN(C)C5)cc4n3)n2)c1` [Ex. 201, N-(1-Methylazetidin-3-yl)-7-morpholino-5-(3-(m-tolyl)-1H-pyrazol-1-yl)thieno[3,2-b]pyridine-2-carboxamide], which inhibition at 0.001 µM is on record?
**A.** 52 to 100%

**Q.** With `Cc1cccc(-c2ccn(-c3cc(N4CCOCC4)c4sc(C(=O)N5CCC(N6CCC6)C(F)C5)cc4n3)n2)c1` (centres unmarked) [Ex. 236] as the compound, how does the inhibition at 0.001 µM read?
**A.** 52 to 100%

**Q.** For `CNC(=O)c1cc2nc(-n3ccc(-c4cccc(C)c4)n3)cc(N3CCOCC3)c2s1` [Ex. 247], which inhibition at 0.001 µM is on record?
**A.** 52 to 100%

**Q.** Which inhibition at 0.001 µM does the source give for `Cc1cccc(-c2nc(-c3nc(N4CCOCC4)c4sc(CN5CCN(S(C)(=O)=O)CC5)cc4n3)cs2)c1` [Ex. 243] here?
**A.** 52 to 100%

**Q.** Which inhibition at 0.001 µM does the source give for `Cc1cccc(-c2ccn(-c3cc(N4CCOCC4)c4nc(CN5C6CC5CN(S(C)(=O)=O)C6)[nH]c4n3)n2)c1` [Ex. 285] here?
**A.** 52 to 100%

**Q.** Which inhibition at 0.001 µM does the source give for `CC(=O)N1CCN(Cc2cc3nc(-n4ccc(-c5cccc(C)c5)n4)cc(N4CCOCC4)c3s2)CC1` [Ex. 295] here?
**A.** 52 to 100%

**Q.** With `Cc1cccc(-c2ccn(-c3cc(N4CCOCC4)c4sc(C(=O)NC5COC5)cc4n3)n2)c1` [Ex. 179, 7-Morpholino-N-(oxetan-3-yl)-5-(3-(m-tolyl)-1H-pyrazol-1-yl)thieno[3,2-b]pyridine-2-carboxamide] as the compound, how does the inhibition at 0.001 µM read?
**A.** 52 to 100%

**Q.** For `Cc1cccc(-c2ccn(-c3nc(N4CCOCC4)c4sc(CO)cc4n3)n2)c1` [Ex. 311], which inhibition at 0.001 µM is on record?
**A.** 52 to 100%

**Q.** With `Cc1cccc(-c2ccn(-c3cc(N4CCOCC4)c4nc(C(=O)NC5COC5)n(C)c4n3)n2)c1` [Ex. 308] as the compound, how does the inhibition at 0.001 µM read?
**A.** 52 to 100%

**Q.** With `Cc1cccc(-c2ccn(-c3cc(N4CCOCC4)c4nc(CN5CCC(N(C)C)C(F)C5)n(C)c4n3)n2)c1` (centres unmarked) [Ex. 82, 3-fluoro-N,N-dimethyl-1-((3-methyl-7-morpholino-5-(3-(m-tolyl)-1H-pyrazol-1-yl)-3H-imidazo[4,5-b]pyridin-2-yl)methyl)piperidin-4-amine] as the compound, how does the inhibition at 0.001 µM read?
**A.** 52 to 100%

**Q.** Which inhibition at 0.001 µM does the source give for `Cc1cccc(-c2ccn(-c3cc(N4CCOCC4)c4nc(CN5CCC(N6CCC6)C(F)C5)n(C)c4n3)n2)c1` (centres unmarked) [Ex. 83, 4-(2-((4-(azetidin-1-yl)-3-fluoropiperidin-1-yl)methyl)-3-methyl-5-(3-(m-tolyl)-1H-pyrazol-1-yl)-3H-imidazo[4,5-b]pyridin-7-yl)morpholine] here?
**A.** 52 to 100%

**Q.** With `Cc1cccc(-c2ccn(-c3nc(N4CCOCC4)c4sc(NCCN5CCOCC5)nc4n3)n2)c1` [Ex. 202, 7-Morpholino-N-(2-morpholinoethyl)-5-(3-(m-tolyl)-1H-pyrazol-1-yl)thiazolo-[4,5-d]pyrimidin-2-amine] as the compound, how does the inhibition at 0.001 µM read?
**A.** 52 to 100%

**Q.** With `Cc1cccc(-c2ccn(-c3nc(N4CCOCC4)c4nc(C(=O)NC5CC5)[nH]c4n3)n2)c1` [Ex. 274] as the compound, how does the inhibition at 0.001 µM read?
**A.** 52 to 100%

**Q.** With `Cc1cccc(-c2ccn(-c3cc(N4CCOCC4)c4sc(NC(=O)C5CCN(C)C5)cc4n3)n2)c1` (centres unmarked) [Ex. 271] as the compound, how does the inhibition at 0.001 µM read?
**A.** 52 to 100%

**Q.** With `Cc1cccc(-c2ccn(-c3cc(N4CCOCC4)c4sc(C(=O)N5CCN(C)CC5)cc4n3)n2)c1` [Ex. 217, (4-Methylpiperazin-1-yl) (7-morpholino-5-(3-(m-tolyl)-1H-pyrazol-1-yl)thieno[3,2-b]pyridin-2-yl)methanone] as the compound, how does the inhibition at 0.001 µM read?
**A.** 52 to 100%

**Q.** With `Cc1cccc(-c2ccn(-c3cc(N4CCOCC4)c4sc(C(=O)NC5CCN(C)CC5)cc4n3)n2)c1` [Ex. 186, N-(1-Methylpiperidin-4-yl)-7-morpholino-5-(3-(m-tolyl)-1H-pyrazol-1-yl)thieno[3,2-b]pyridine-2-carboxamide] as the compound, how does the inhibition at 0.001 µM read?
**A.** 52 to 100%

**Q.** Which inhibition at 0.001 µM does the source give for `Cc1cccc(-c2ccn(-c3nc(N4CCOCC4)c4sc(C(=O)N5CCN(S(C)(=O)=O)CC5)cc4n3)n2)c1` [Ex. 286] here?
**A.** 52 to 100%

**Q.** Which inhibition at 0.001 µM does the source give for `Cc1cccc(-c2ccn(-c3nc(N4CCOCC4)c4sc(/C=C/CN5CCN(C)CC5)cc4n3)n2)c1` [Ex. 180] here?
**A.** 52 to 100%

**Q.** For `Cc1cccc(-c2ccn(-c3cc(N4CCOCC4)c4sc(C(=O)N5CCC(N6CC(F)C6)CC5)cc4n3)n2)c1` [Ex. 237], which inhibition at 0.001 µM is on record?
**A.** 52 to 100%

**Q.** Which inhibition at 0.001 µM does the source give for `Cc1cccc(-c2ccn(-c3cc(N4CCOCC4)c4sc(CN5CCN(C(C)C)CC5)c(C)c4n3)n2)c1` [Ex. 132, 4-(2-((4-Isopropylpiperazin-1-yl)methyl)-3-methyl-5-(3-(m-tolyl)-1H-pyrazol-1-yl)thieno[3,2-b]pyridin-7-yl)morpholine] here?
**A.** 52 to 100%

**Q.** For `Cc1cccc(-c2ccn(-c3cc(N4CCOCC4)c4sc(CN5CCN(S(C)(=N)=O)CC5)cc4n3)n2)c1` (centres unmarked) [Ex. 284], which inhibition at 0.001 µM is on record?
**A.** 52 to 100%

**Q.** Which inhibition at 0.001 µM does the source give for `Cc1cccc(-c2ccn(-c3cc(N4CCOCC4)c4sc(C(=O)NC5CCN(C)C5)cc4n3)n2)c1` (centres unmarked) [Ex. 200, N-(1-Methylpyrrolidin-3-yl)-7-morpholino-5-(3-(m-tolyl)-1H-pyrazol-1-yl)thieno[3,2-b]pyridine-2-carboxamide] here?
**A.** 52 to 100%

**Q.** For `Cc1cccc(-c2ccn(-c3nc(N4CCOCC4)c4nc(C(=O)N5CCN(S(C)(=O)=O)CC5)n(C)c4n3)n2)c1` [Ex. 287], which inhibition at 0.001 µM is on record?
**A.** 52 to 100%

**Q.** For `Cc1cccc(-c2ccn(-c3nc(N4CCOCC4)c4nc(C(=O)N5CCN(S(C)(=O)=O)CC5)[nH]c4n3)n2)c1` [Ex. 78], which inhibition at 0.001 µM is on record?
**A.** 52 to 100%

**Q.** Which inhibition at 0.001 µM does the source give for `Cc1cccc(-c2ccn(-c3cc(N4CCOCC4)c4nc(CN5CCC(C(N)=O)CC5)[nH]c4n3)n2)c1` [Ex. 303] here?
**A.** 52 to 100%

**Q.** With `Cc1cccc(-c2ccn(-c3cc(N4CCOCC4)c4sc(C(=O)NC5CCOCC5)cc4n3)n2)c1` [Ex. 177, 7-Morpholino-N-(tetrahydro-2H-pyran-4-yl)-5-(3-(m-tolyl)-1H-pyrazol-1-yl)thieno[3,2-b]pyridine-2-carboxamide] as the compound, how does the inhibition at 0.001 µM read?
**A.** 52 to 100%

**Q.** With `Cc1cccc(-c2ccn(-c3cc(N4CCOCC4)c4nc(CN5CCN(C(C)C)CC5)n(C)c4n3)n2)c1` [Ex. 79, 4-(2-((4-isopropylpiperazin-1-yl)methyl)-3-methyl-5-(3-(m-tolyl)-1H-pyrazol-1-yl)-3H-imidazo[4,5-b]pyridin-7-yl)morpholine] as the compound, how does the inhibition at 0.001 µM read?
**A.** 52 to 100%

**Q.** For `Cc1cccc(-c2ccn(-c3cc(N4CCOCC4)c4sc(CN5CCC(C(N)=O)CC5)cc4n3)n2)c1` [Ex. 297], which inhibition at 0.001 µM is on record?
**A.** 52 to 100%

**Q.** Which inhibition at 0.001 µM does the source give for `Cc1cccc(-c2ccn(-c3cc(N4CCOCC4)c4nc(CO)[nH]c4n3)n2)c1` [Ex. 317] here?
**A.** 52 to 100%

**Q.** Which inhibition at 0.001 µM does the source give for `Cc1cccc(-c2ccn(-c3cc(N4CCOCC4)c4nc(COCc5ccccc5)[nH]c4n3)n2)c1` [Ex. 316] here?
**A.** 52 to 100%

**Q.** Which inhibition at 0.001 µM does the source give for `Cc1cccc(-c2ccn(-c3cc(N4CCOCC4)c4sc(C(=O)N5CCC(N6CC(F)C6)C5)cc4n3)n2)c1` (centres unmarked) [Ex. 238] here?
**A.** 52 to 100%

**Q.** For `Cc1cccc(-c2ccn(-c3cc(N4CCOCC4)c4sc(C(=O)Nc5ccccn5)cc4n3)n2)c1` [Ex. 299], which inhibition at 0.001 µM is on record?
**A.** 52 to 100%
